Where two headings read alike, the source gives them in different places.

Experimental findings from patent US20220315534A1, “BETA ADRENERGIC AGONIST AND METHODS OF USING THE SAME” (Curasen Therapeutics, Inc., priority 2019, published 2022) are described below.

Test [1] concerns the target T1, β1-adrenergic receptor (B1-AR) (Homo sapiens, UniProt P08588).
T1 construct: expressed in transfected cells
The test is described as follows: cAMP Gs dynamic HTRF assay, cells expressing β1-adrenergic receptor. The format is cell-based. Here is the method:
(§1) cAMP homogeneous time-resolved fluorescence (HTRF): experimental methods. Compound efficacy is determined using the cAMP Gs dynamic HTRF assay (Cisbio, catalog #62AM4PEC) largely following the manufacturer's instructions, also detailed below.
(§2) Standard serial dilution curves are 10-point, 5-fold dilutions starting from a highest concentration of 10 μM. […] Assay plates are centrifuged at 500×g for 10 seconds. Compounds and IBMX are prepared at 2× final dose to compensate for addition of cells.
(§3) Cell preparation: 1× stimulation buffer, washing PBS (Dulbecco's phosphate-buffered saline, —Mg —Ca; Caisson Labs, catalog #PBL01), assay PBS (Dulbecco's phosphate-buffered saline, +Mg, +Ca; Caisson Labs, catalog #PBL02) and Versene (0.02% EDTA disodium salt solution in PBS without calcium or magnesium; Caisson Labs, catalog #EDL01) are pre-warmed to 37° C. Cells expressing beta-adrenergic receptor were washed in washing PBS to remove growth medium and then released from the surface by incubating with Versene for 5-10 minutes at 37° C. Cells are harvested using assay PBS, counted manually by hemocytometer or by an automated cell counter, pelleted by centrifugation (200×g, 5 minutes) and resuspended in 37° C. 1× stimulation buffer to a final density of […]. 5 μL of the suspended cell solution (7500 cell total) are added to all wells of the 384 well assay plate, the assay plate was covered with an Axygen® plate seal (Corning PCR-SP) and incubated in a humidified 37° C. environment supplemented with 5% CO2 for 30 minutes.
(§4) HTRF reagent addition, reading and data analysis: After 30 minutes of cell stimulation with test compound, the assay plates are centrifuged at 500×g for 10 seconds, and incubation was stopped with the addition of 5 μL cAMP-D2 acceptor, diluted 1:21 in detection and lysis buffer 2 (Cisbio 62CL2FDF) was added to all cells. Subsequently, 5 μL Anti-cAMP-Eu Donor, diluted 1:21 in detection and lysis buffer 2, was added to cells. Plates were sealed and reactions gently ‘vortexed’ at 900 rpm on a Heidolph Titramax 1000 for at least 30 minutes at room temperature. Plates are centrifuged again at 500×g for 10 seconds, and HTRF was measured using a Tecan Spark plate reader at 50 flashes per well. […] Potency estimates (EC50 and pEC50) are derived from the four-parameter nonlinear regression of the concentration-effect curve and an estimate of relative efficacy is determined by comparing the magnitude of the test compound HTRF signal window (min-max dose) with the signal window of the full agonist control, isoproterenol.
Background: In TR-FRET formats the signal depends on donor and acceptor labels being close together.

Test [2] concerns the target T2, β2-adrenergic receptor (B2-AR) (Homo sapiens, UniProt P07550).
T2 construct: expressed in transfected cells
As to the kind of experiment: cAMP Gs dynamic HTRF assay, cells expressing β2-adrenergic receptor. The format is cell-based. Here is the method: as §1, §2, §3, §4

Setting [3] is: CHO-K1 (HitHunter) cells, read-out: Average pEC50 [Receptor subtype: B1-AR, Cell type: CHO-K1 (HitHunter)] (converted).
Setting [4] is: CHO-K1 (HitHunter) cells, read-out: Average pEC50 [Receptor subtype: B2-AR, Cell type: CHO-K1 (HitHunter)] (converted).

T2 sequence (P07550 whole entry): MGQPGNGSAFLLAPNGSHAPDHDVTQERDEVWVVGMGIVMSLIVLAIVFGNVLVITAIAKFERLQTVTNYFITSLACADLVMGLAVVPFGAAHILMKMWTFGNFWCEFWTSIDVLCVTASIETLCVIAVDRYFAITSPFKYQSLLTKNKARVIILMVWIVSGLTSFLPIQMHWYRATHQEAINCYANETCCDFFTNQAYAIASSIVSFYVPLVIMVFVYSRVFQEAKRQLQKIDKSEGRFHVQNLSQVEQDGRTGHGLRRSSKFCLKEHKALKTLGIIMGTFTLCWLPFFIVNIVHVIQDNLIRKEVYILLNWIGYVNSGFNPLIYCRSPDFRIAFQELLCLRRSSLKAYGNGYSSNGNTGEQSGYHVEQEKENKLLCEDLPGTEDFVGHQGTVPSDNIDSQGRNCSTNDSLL
T1 sequence (P08588 whole entry): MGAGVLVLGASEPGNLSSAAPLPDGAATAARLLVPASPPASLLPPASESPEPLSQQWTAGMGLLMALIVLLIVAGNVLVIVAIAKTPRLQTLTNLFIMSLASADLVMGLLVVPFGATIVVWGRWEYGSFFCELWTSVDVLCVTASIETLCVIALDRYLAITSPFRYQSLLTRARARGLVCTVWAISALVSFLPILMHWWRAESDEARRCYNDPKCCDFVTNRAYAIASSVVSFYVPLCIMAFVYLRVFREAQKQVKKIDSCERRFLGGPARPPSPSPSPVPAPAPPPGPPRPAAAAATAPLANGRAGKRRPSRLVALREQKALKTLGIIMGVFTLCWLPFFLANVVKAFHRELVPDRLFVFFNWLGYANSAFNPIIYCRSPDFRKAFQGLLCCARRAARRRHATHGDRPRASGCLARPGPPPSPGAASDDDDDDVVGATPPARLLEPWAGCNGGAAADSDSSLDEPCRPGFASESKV

For the molecule `CC(C)(C)NC[C@H](O)c1cccc2c(C(F)(F)F)ccnc12` [Compound 04-69], the figures for the EC50 in test [1] (setting [3]) and in test [2] (setting [4]) were 10 to 100 nM and 100 to 1000 nM, respectively.

Take `CC(C)NC[C@H](O)c1cccc2[nH]c3ccccc3c12` [Compound 04-56]: the EC50 in test [1] (setting [3]) and in test [2] (setting [4]) was under 10 nM throughout.

`Cn1ncc2cc([C@H](O)CNC(C)(C)C)ccc21` [Compound 04-50]: the figures for the EC50 in test [1] (setting [3]) and in test [2] (setting [4]) were 100 to 1000 nM and 10 to 100 nM, respectively.

As for `CC(C)(C)NC[C@H](O)c1ccc2[nH]ncc2c1` [Compound 04-48], the EC50 in test [1] (setting [3]) and in test [2] (setting [4]) was over 1000 nM each time.

As to `CC(C)(C)NC[C@H](O)c1ccc(C(F)(F)F)c2cccnc12` [Compound 04-82], the EC50 in test [1] (setting [3]) and in test [2] (setting [4]) was under 10 nM in each case.

`Cc1nc([C@@H](O)CNC(C)(C)C)cnc1N` [Compound 02-4]: the EC50 in test [1] (setting [3]) was 100 to 1000 nM; in test [2] (setting [4]), over 1000 nM.

On to `Cn1c(=O)ccc2c([C@@H](O)CNC(C)(C)C)cccc21` [Compound 04-2], for which the EC50 was 10 to 100 nM in test [1] (setting [3]) and under 10 nM in test [2] (setting [4]).

`CC(C)(C)NC[C@H](O)c1cccc2c1C(F)(F)C(=O)N2` [Compound 04-158]: the EC50 in test [1] (setting [3]) was 10 to 100 nM; in test [2] (setting [4]) it was under 10 nM.

`Cc1ccnc2c([C@H](O)CNC(C)(C)C)cccc12` [Compound 04-83]: the EC50 in test [1] (setting [3]) and in test [2] (setting [4]) was 100 to 1000 nM each time.

`CC(C)(C)NC[C@H](O)c1c(F)ccc2cccnc12` [Compound 04-90]: the results for the EC50 in test [1] (setting [3]) and in test [2] (setting [4]) were 100 to 1000 nM and over 1000 nM, respectively.

Consider `Cc1ccc2cccc([C@@H](O)CNC(C)(C)C)c2n1` [Compound 04-88], for which the EC50 in test [1] (setting [3]) and in test [2] (setting [4]) was under 10 nM in each case.

Turning to `CC(C)(C)NC[C@H](O)c1cccc2c1C1(CC1)C(=O)N2` [Compound 04-103], the EC50 in test [1] (setting [3]) and in test [2] (setting [4]) was 100 to 1000 nM in each case.

Regarding `CC(C)(C)NC[C@H](O)c1c2cn[nH]c2cc[n+]1[O-]` [Compound 04-106], the EC50 in test [1] (setting [3]) and in test [2] (setting [4]) was 100 to 1000 nM each time.

With `CC(C)(C)NC[C@H](O)c1cccc2c1CC(=O)N2` [Compound 04-110], the EC50 in test [1] (setting [3]) and in test [2] (setting [4]) was over 1000 nM each time.

`CC(C)(C)NC[C@@H](O)c1c2cn[nH]c2cc[n+]1[O-]` [Compound 04-107]: the EC50 in test [1] (setting [3]) is over 1000 nM; in test [2] (setting [4]), 100 to 1000 nM.

On to `CC(C)(C)NC[C@H](O)c1ccc2[nH]c3ccccc3c2c1` [Compound 04-54], for which the figures for the EC50 in test [1] (setting [3]) and in test [2] (setting [4]) were over 1000 nM and 100 to 1000 nM, respectively.

For `Cc1ccnc2c([C@@H](O)CNC(C)(C)C)cccc12` [Compound 04-84], the values for the EC50 in test [1] (setting [3]) and in test [2] (setting [4]) were under 10 nM and 10 to 100 nM, respectively.

Regarding `CC(C)CNC[C@H](O)c1ccc2nc[nH]c2c1` [Compound 04-140], the EC50 was over 1000 nM in test [1] (setting [3]) and 100 to 1000 nM in test [2] (setting [4]).

Take `Cc1ccc([C@@H](O)CNC(C)(C)C)c2cn[nH]c12` [Compound 04-130]: the EC50 in test [1] (setting [3]) and in test [2] (setting [4]) was under 10 nM in each case.

For the molecule `CC(C)NC[C@H](O)c1cccc2[nH]c(=O)ccc12` [Compound 04-152], the EC50 in test [1] (setting [3]) and in test [2] (setting [4]) was under 10 nM in each case.

With `CC(C)(C)NC[C@H](O)c1ccc2cccc(F)c2n1` [Compound 04-41], the EC50 in test [1] (setting [3]) and in test [2] (setting [4]) was under 10 nM throughout.

`CC(C)(C)NC[C@H](O)c1cccc2[nH]c3cccnc3c12` [Compound 04-119]: the EC50 in test [1] (setting [3]) and in test [2] (setting [4]) was under 10 nM in each case.

For `CC(C)(C)NC[C@@H](O)c1ccc(F)c2[nH]c(=O)ccc12` [Compound 04-16], the EC50 in test [1] (setting [3]) was 100 to 1000 nM; in test [2] (setting [4]), 10 to 100 nM.

Consider `CC(C)(C)NC[C@H](O)c1ccc2c(n1)NCCO2` [Compound 04-10], for which the EC50 in test [1] (setting [3]) and in test [2] (setting [4]) was 10 to 100 nM in each case.

On to `CC(C)(C)NC[C@H](O)c1cccc2oc(=O)ccc12` [Compound 04-3], for which the EC50 is over 1000 nM in test [1] (setting [3]) and 100 to 1000 nM in test [2] (setting [4]).

Consider `CC(C)(C)NC[C@@H](O)c1cccc2ccc(C#N)nc12` [Compound 04-71], for which the EC50 in test [1] (setting [3]) and in test [2] (setting [4]) was 100 to 1000 nM throughout.

In the case of `CC(C)(C)NC[C@H](O)c1cc(F)cc2cccnc12` [Compound 04-76], the EC50 in test [1] (setting [3]) and in test [2] (setting [4]) was under 10 nM each time.

`CC(C)(C)NC[C@H](O)c1cnc(N)c(C(F)(F)F)c1` [Compound 02-2]: the “Average pEC50 [Receptor subtype: B1-AR; Cell type: CHO-K1 (HitHunter)]” value in test [1] (CHO-K1 (HitHunter) cells) was “D (D < 6)”. Further, the EC50 was over 1000 nM in test [1] (Table 2, cAMP HTRF, read-out: β1 EC50) and over 1000 nM in test [2] (Table 2, cAMP HTRF, read-out: β2 EC50). Moreover, in test [2] (CHO-K1 (HitHunter) cells), the “Average pEC50 [Receptor subtype: B2-AR; Cell type: CHO-K1 (HitHunter)]” value is recorded as “D (D < 6)”.

Regarding `CC(C)(C)NC[C@@H](O)c1ccc(F)c2cccnc12` [Compound 04-79], the EC50 in test [1] (setting [3]) and in test [2] (setting [4]) was 100 to 1000 nM each time.

With `CC(C)(C)NC[C@H](O)c1cccc2c1CCCC(=O)N2` [Compound 04-129], the EC50 in test [1] (setting [3]) is over 1000 nM; in test [2] (setting [4]) it was 10 to 100 nM.

As for `CC(C)(C)NC[C@H](O)c1cc(F)c2[nH]cnc2c1` [Compound 04-156], the EC50 in test [1] (setting [3]) is 10 to 100 nM; in test [2] (setting [4]), under 10 nM.

On to `Cc1c[nH]c2cccc([C@@H](O)CNC(C)(C)C)c12` [Compound 04-111], for which the EC50 in test [1] (setting [3]) and in test [2] (setting [4]) was over 1000 nM each time.

Regarding `CC(C)(C)NC[C@H](O)c1cccc2ccc(C(F)(F)F)nc12` [Compound 04-85], the EC50 in test [1] (setting [3]) and in test [2] (setting [4]) was under 10 nM in each case.

In the case of `O=c1ccc2c([C@@H](O)CNC3CCC3)cccc2[nH]1` [Compound 04-142], the EC50 in test [1] (setting [3]) and in test [2] (setting [4]) was under 10 nM in each case.

`CC(C)(C)NC[C@H](O)c1ccnc2cccnc12` [Compound 04-73]: the EC50 in test [1] (setting [3]) and in test [2] (setting [4]) was 10 to 100 nM each time.

For the molecule `CC(C)(C)NC[C@H](O)c1ccc2[nH]cnc2c1` [Compound 04-124], the values for the EC50 in test [1] (setting [3]) and in test [2] (setting [4]) were 10 to 100 nM and under 10 nM, respectively.

Take `CC(C)(C)NC[C@H](O)c1cc(C#N)cc2[nH]ncc12` [Compound 04-104]: the EC50 is 100 to 1000 nM in test [1] (setting [3]) and under 10 nM in test [2] (setting [4]).

For the molecule `CC(C)(C)NC[C@H](O)c1cccc2[nH]cnc12` [Compound 04-24], the EC50 in test [1] (setting [3]) and in test [2] (setting [4]) was 10 to 100 nM in each case.

Turning to `CC(C)(C)NC[C@H](O)c1cccc2[nH]ccc12` [Compound 04-105], the EC50 in test [1] (setting [3]) and in test [2] (setting [4]) was over 1000 nM throughout.

With `CC(C)(C)NC[C@H](O)c1ccnc2[nH]c(=O)ccc12` [Compound 04-13], the EC50 is 10 to 100 nM in test [1] (setting [3]) and under 10 nM in test [2] (setting [4]).

Regarding `CC(C)(C)NC[C@H](O)c1ccc2ccc(C(F)(F)F)cc2n1` [Compound 04-36], the EC50 in test [1] (setting [3]) and in test [2] (setting [4]) was under 10 nM throughout.

For the molecule `CC1(NC[C@H](O)c2cc(F)cc3[nH]ncc23)CCC1` [Compound 04-148], the EC50 in test [1] (setting [3]) and in test [2] (setting [4]) was under 10 nM in each case.

With `Cn1ncc2cc([C@@H](O)CNC(C)(C)C)ccc21` [Compound 04-49], the EC50 in test [1] (setting [3]) and in test [2] (setting [4]) was over 1000 nM each time.

On to `CC(C)(C)NC[C@H](O)c1cccc2[nH]c3ncccc3c12` [Compound 04-131], for which the EC50 in test [1] (setting [3]) and in test [2] (setting [4]) was under 10 nM each time.

As for `CC(C)(C)NC[C@H](O)c1ccc2c(c1)C1(CC1)CN2` [Compound 04-123], the EC50 is over 1000 nM in test [1] (setting [3]) and 100 to 1000 nM in test [2] (setting [4]).

Regarding `CC(C)(C)NC[C@H](O)c1cccc(O)n1` [Compound 02-7], the EC50 in test [1] (setting [3]) and in test [2] (setting [4]) was over 1000 nM in each case.
